Measurements as given in patent publication US11883387B2, “PqsR inverse agonists” (HELMHOLTZ-ZENTRUM FÜR INFEKTIONSFORSCHUNG GMBH, priority 2018, dated 2024).
pIC50: −log10 of the molar value.

How the values were obtained:
[1] = biological target: PqsR (Pseudomonas aeruginosa, UniProt Q9I4X0); test: E. coli based β-galactosidase reporter gene assay (PqsR inverse agonistic activity); type: cell-based; parameters: expressed in transfected cells; host or cells: Escherichia coli DH5α
Experimental: Inhibition of pqsR-dependent gene expression of test compounds was determined in an E. coli based β-galactosidase reporter gene assay.[19] Escherichia coli DH5α was transfected with pEAL08-2 plasmid encoding pqsR under control of promoter tac and β-galactosidase reporter gene lacZ under control of promoter pqsA. Antagonistic effects of compounds were evaluated in the presence of/in competition to 50 nM PQS. A positive control was used to ensure the reliability of individual assays. First, PQS was diluted in methanol and added to the wells of a glass coated 96-deep-well plate, and the solvent was evaporated. Then, compounds were added in 5 μL DMSO to final concentrations of 0.001-10 μM. Overnight cultures of E. coli DH5a×pEAL08-2 were diluted 1:100 in LB medium with ampicillin (50 μg/ml) and incubated at 37° C. with shaking until it reached an OD600 of 0.2. Finally, 995 μL of culture was added to each well and the p-galactosidase activity was determined by ortho-nitrophenyl-p-galactoside conversion in permeabilized cells after a 2.5 h incubation period (37° C., 180 rpm). OD600, OD420, and OD550 were measured using POLARstar Omega (BMG Labtech, Ortenberg, Germany), and the activity was expressed as ratio of the slope of β-galactosidase activity between basal control (no PQS) and solvent control. IC50 values of antagonists were determined by variation of the concentration of the test compounds.

[2] = tested on: P. aeruginosa pyocyanin production; test: Pyocyanin assay; type: cell-based, P. aeruginosa PA14; settings: Pseudomonas aeruginosa, PA14, 16 h, read-out: IC50-value towards pyocyanin production, PA14 in PPGAS medium, 16 h
Experimental: Inhibition of P. aeruginosa pyocyanin production by compounds was determined photometrically as described before.[20] In short, an overnight culture of PA14 in PPGAS medium was washed, diluted in medium to a start OD600 of 0.02, and incubated for 16 h (37° C., 200 rpm, relative humidity 75%) in the presence of test compounds. Then, cultures were extracted with chloroform and re-extracted with 0.2 M HCl. Protonated red colored pyocyanin was determined by measuring OD520 and normalizing to OD600.

Chain of PqsR (Q9I4X0 whole entry): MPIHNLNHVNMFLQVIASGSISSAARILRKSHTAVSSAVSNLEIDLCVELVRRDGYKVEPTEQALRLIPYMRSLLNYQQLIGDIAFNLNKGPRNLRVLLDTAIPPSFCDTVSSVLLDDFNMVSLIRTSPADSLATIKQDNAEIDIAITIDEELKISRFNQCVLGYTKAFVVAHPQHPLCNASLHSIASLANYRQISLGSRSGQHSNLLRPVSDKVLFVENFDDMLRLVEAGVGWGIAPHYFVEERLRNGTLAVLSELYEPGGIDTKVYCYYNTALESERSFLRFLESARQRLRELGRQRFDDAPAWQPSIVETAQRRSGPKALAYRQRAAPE

| Compound | pIC50 [1] | pIC50 [2] |
| --- | --- | --- |
| CSc1ccc(-n2cc(CNc3ccnc(C(F)(F)F)c3)nn2)cc1 [Compound 016, N-((1-(4-(methylthio)phenyl)-1H-1,2,3-triazol-4-yl)methyl)-2-(trifluoromethyl)pyridin-4-amine] | ≥ 7.30 | 5.30 to 6.00 |
| FC(F)(F)c1cc(NCc2cn(-c3ccc(Nc4ccccc4)cc3)nn2)ccn1 [Compound 018, N-((1-(4-(Phenylamino)phenyl)-1H-1,2,3-triazol-4-yl)methyl)-2-(trifluoromethyl)pyridin-4-amine] | ≥ 7.30 | 6.00 to 6.60 |
| FC(F)(F)Oc1ccc(-n2cc(CSc3ccnc(C(F)(F)F)c3)nn2)cc1Cl [Compound 063, 4-(((1-(3-chloro-4-(trifluoromethoxy)phenyl)-1H-1,2,3-triazol-4-yl)methyl)thio)-2-(trifluoromethyl)pyridine] | 6.60 to 7.29 | 5.30 to 6.00 |
| Fc1ncccc1Oc1ccc(-n2cc(CNc3cc(Cl)nc(C(F)(F)F)c3)nn2)cc1 [Compound 142, 2-chloro-N-((1-(4-((2-fluoropyridin-3-yl)oxy)phenyl)-1H-1,2,3-triazol-4-yl)methyl)-6-(trifluoromethyl)pyridin-4-amine] | ≥ 7.30 | ≥ 6.60 |
| CC(C)Oc1ccc(-c2ncc(CNc3ccnc(C#N)c3)s2)cc1Cl [Compound 091, 4-(((2-(3-Chloro-4-isopropoxyphenyl)thiazol-5-yl)methyl)amino)picolinonitrile] | ≥ 7.30 | ≥ 6.60 |
| CC(C)Oc1ccc(-c2ncc(CNc3cc(Cl)nc(C(F)(F)F)c3)cn2)cc1 [Compound 168, 2-chloro-N-((2-(4-isopropoxyphenyl)pyrimidin-5-yl)methyl)-6-(trifluoromethyl)pyridin-4-amine] |  | ≥ 6.60 |
| Fc1ccccc1Oc1ccc(-c2ncc(CNc3cc(Cl)nc(C(F)(F)F)c3)cn2)cc1 [Compound 167, 2-chloro-N-((2-(4-(2-fluorophenoxy)phenyl)pyrimidin-5-yl)methyl)-6-(trifluoromethyl)pyridin-4-amine] |  | ≥ 6.60 |
| Fc1cccc(Oc2ccc3[nH]c(CSc4ccnc(C(F)(F)F)c4)nc3c2)c1 [Compound 170, 5-(3-fluorophenoxy)-2-(((2-(trifluoromethyl)pyridin-4-yl)thio)methyl)-1H-benzo[d]imidazole] |  | ≥ 6.60 |
| Clc1cc(NCc2cn(-c3ccc(Oc4ccccc4)cc3)nn2)ccn1 [Compound 049, 2-Chloro-N-((1-(4-phenoxyphenyl)-1H-1,2,3-triazol-4-yl)methyl)pyridin-4-amine] | ≥ 7.30 | 6.00 to 6.60 |
| Nc1cc(SCc2nc3cc(Oc4cccc(F)c4)ccc3[nH]2)nc(C(F)(F)F)n1 [Compound 171, 6-(((5-(3-fluorophenoxy)-1H-benzo[d]imidazol-2-yl)methyl)thio)-2-(trifluoromethyl)pyrimidin-4-amine] |  | ≥ 6.60 |
| CC(C)Oc1ccc(-c2ncc(CNc3cc(C#N)nc(C(F)(F)F)c3)s2)cc1 [Compound 163, 4-(((2-(4-Isopropoxyphenyl)thiazol-5-yl)methyl)amino)-6-(trifluoromethyl)picolinonitrile] |  | ≥ 6.60 |
| FC(F)(F)c1cc(SCc2nc3cc(Oc4ccccc4)ccc3[nH]2)cc(Cl)n1 [Compound 184, 2-(((2-chloro-6-(trifluoromethyl)pyridin-4-yl)thio)methyl)-5-phenoxy-1H-benzo[d]imidazole] | ≥ 7.30 | ≥ 6.60 |
| N#Cc1cc(NCc2cn(-c3ccc(Oc4ccccc4)cc3)nn2)cc(C#N)n1 [Compound 052, 4-(((1-(4-Phenoxyphenyl)-1H-1,2,3-triazol-4-yl)methyl)amino)pyridine-2,6-dicarbonitrile] | ≥ 7.30 | ≥ 6.60 |
| O=[N+]([O-])c1cc(-c2ncc(CNc3cc(Cl)nc(C(F)(F)F)c3)cn2)ccc1Cl [Compound 169, 2-chloro-N-((2-(4-chloro-3-nitrophenyl)pyrimidin-5-yl)methyl)-6-(trifluoromethyl)pyridin-4-amine] |  | ≥ 6.60 |
| FC(F)(F)c1cc(NCc2cn(-c3ccc(-n4ncc5ccncc54)cc3)nn2)cc(Cl)n1 [Compound 151, N-((1-(4-(1H-pyrazolo[3,4-c]pyridin-1-yl)phenyl)-1H-1,2,3-triazol-4-yl)methyl)-2-chloro-6-(trifluoromethyl)pyridin-4-amine] |  | 6.00 to 6.60 |
| Fc1cccc2c1cnn2-c1ccc(-n2cc(CNc3cc(Cl)nc(C(F)(F)F)c3)nn2)cc1 [Compound 146, 2-chloro-N-((1-(4-(4-fluoro-1H-indazol-1-yl)phenyl)-1H-1,2,3-triazol-4-yl)methyl)-6-(trifluoromethyl)pyridin-4-amine] |  | 6.00 to 6.60 |

| Compound | pIC50 [1] | pIC50 [2] |
| --- | --- | --- |
| CC(C)Oc1ccc(-n2cc(CNc3cc(Cl)nc(C(F)(F)F)c3)nn2)cc1 [Compound 140, 2-chloro-N-((1-(4-isopropoxyphenyl)-1H-1,2,3-triazol-4-yl)methyl)-6-(trifluoromethyl)pyridin-4-amine] |  | ≥ 6.60 |
| FC(F)(F)c1cc(NCc2cn(-c3ccc(Oc4ccccn4)c(Cl)c3)nn2)ccn1 [Compound 034, N-((1-(3-Chloro-4-(pyridin-2-yloxy)phenyl)-1H-1,2,3-triazol-4-yl)methyl)-2-(trifluoromethyl)pyridin-4-amine] | ≥ 7.30 |  |
| Fc1cccc(Oc2ccc3[nH]c(CSc4ccnc(C(F)(F)F)c4)nc3c2)c1 [Compound 130, 5-(3-Fluorophenoxy)-2-(((2-(trifluoromethyl)pyridin-4-yl)thio)methyl)-1H-benzo[d]imidazole] | ≥ 7.30 |  |
| FC(F)(F)c1cc(SCc2ccc(-c3cnc(Cl)nc3)cn2)ccn1 [Compound 113, 2-Chloro-5-(6-(((2-(trifluoromethyl)pyridin-4-yl)thio)methyl)pyridin-3-yl)pyrimidine] | 6.00 to 6.60 |  |
| COc1ccc(-n2cc(CSc3ccnc(C(F)(F)F)c3)nn2)cc1 [Compound 062, 4-(((1-(4-methoxyphenyl)-1H-1,2,3-triazol-4-yl)methyl)thio)-2-(trifluoromethyl)pyridine] | 6.00 to 6.60 |  |
| FC(F)(F)Oc1cccc(-n2cc(CNc3ccnc(C(F)(F)F)c3)nn2)c1 [Compound 011, N-((1-(3-(Trifluoromethoxy)phenyl)-1H-1,2,3-triazol-4-yl)methyl)-2-(trifluoromethyl)pyridin-4-amine] | 6.60 to 7.29 |  |
| FC(F)(F)c1cc(SCc2ccn(-c3ccc(Cl)cc3)n2)ccn1 [Compound 135, 4-(((1-(4-chlorophenyl)-1H-pyrazol-3-yl)methyl)thio)-2-(trifluoromethyl)-pyridine] | 6.00 to 6.60 |  |
| N#Cc1ccc(-n2cc(CNc3ccnc(C(F)(F)F)c3)nn2)cc1 [Compound 013, 4-(4-(((2-(trifluoromethyl)pyridin-4-yl)amino)methyl)-1H-1,2,3-triazol-1-yl)benzonitrile] | 6.00 to 6.60 |  |
| COc1ccc(-c2nc(CNc3ccnc(C(F)(F)F)c3)cs2)cc1 [Compound 086, N-((2-(4-Methoxyphenyl)thiazol-4-yl)methyl)-2-(trifluoromethyl)pyridin-4-amine] | 6.00 to 6.60 |  |
| FC(F)(F)c1cc(NCc2cn(-c3cccc(Cl)c3)nn2)ccn1 [Compound 003, N-((1-(3-Chlorophenyl)-1H-1,2,3-triazol-4-yl)methyl)-2-(trifluoromethyl)pyridin-4-amine] | 6.60 to 7.29 |  |
| O=C(c1cccc(-c2nc(CNc3ccnc(C(F)(F)F)c3)cs2)c1)C1CC1 [Compound 090, Cyclopropyl(3-(4-(((2-(trifluoromethyl)pyridin-4-yl)amino)methyl)thiazol-2-yl)phenyl)methanone] | 6.00 to 6.60 |  |
| FC(F)(F)c1cc(SCc2cn(-c3ccc(Cl)cc3)nn2)ccn1 [Compound 055, 4-(((1-(4-chlorophenyl)-1H-1,2,3-triazol-4-yl)methyl)thio)-2-(trifluoromethyl)pyridine] | 6.00 to 6.60 |  |
| FC(F)(F)c1ccc(-n2cc(CNc3ccnc(C(F)(F)F)c3)nn2)cc1 [Compound 014, 2-(Trifluoromethyl)-N-((1-(4-(trifluoromethyl)phenyl)-1H-1,2,3-triazol-4-yl)methyl)pyridin-4-amine] | 6.60 to 7.29 |  |
| FC(F)(F)c1cc(SCc2cn(-c3ccc(Cl)c(Cl)c3)nn2)ccn1 [Compound 059, 4-(((1-(3,4-Dichlorophenyl)-1H-1,2,3-triazol-4-yl)methyl)thio)-2-(trifluoromethyl)pyridine] | 6.60 to 7.29 |  |
| CSc1cccc(-n2cc(CNc3ccnc(C(F)(F)F)c3)nn2)c1 [Compound 015, N-((1-(3-(Methylthio)phenyl)-1H-1,2,3-triazol-4-yl)methyl)-2-(trifluoromethyl)pyridin-4-amine] | 6.60 to 7.29 |  |
| FC(F)(F)c1cc(NCc2cn(-c3ccc(-n4ncc5ccccc54)cc3)nn2)cc(Cl)n1 [Compound 150, N-((1-(4-(1H-indazol-1-yl)phenyl)-1H-1,2,3-triazol-4-yl)methyl)-2-chloro-6-(trifluoromethyl)pyridin-4-amine] |  | 6.00 to 6.60 |
